Data: US20210299134A1, “TREATMENT OF B CELL MALIGNANCIES” (MEI Pharma, Inc., priority 2018, published 2021)
Marks after values point to notes of the source that are not given here.

Tested on: patients with FL or CLL/SLL
Assay: Phase 1b study: adverse events of special interest (AESI) on IS or CS
Format: in vivo, human
Excerpt: In some instances, severe cases of enterocolitis, rash, and transaminitis have been reported in a Phase 1b clinical study of Compound A35 in patients with B-cell malignancies. In some instances, the onset of severe immune-related toxicities were reported after a period of CS dosing greater than 2 cycles. A lymphocytic infiltrate was reported in biopsies obtained from 1 patient with colitis and 1 patient with severe skin rash enrolled in the study. Furthermore, corticosteroid therapy has been reported as effective treatment approach in patients who developed diarrhea and rash in the study.
Following reports of delayed onset of cases of enterocolitis and rash in patients with Compound A35 initially administered once a day on a continuous dosing schedule (CS) in a 28-day cycle, an alternate dosing regimen using an intermittent dosing schedule (IS) was evaluated. The hypothesis was that an IS of PI3K5 inhibitors including Compound A35 could reduce the incidence or lower the severity of immune mediated adverse events (irAEs) by allowing recovery of TREGs during treatment-free intervals. Furthermore, it was hypothesized that the IS, by delivering a lower dose-intensity treatment approach, could be used to re-treat patients who have experienced delayed irAEs on the CS or IS and had recovered following treatment interruption and a short course of corticosteroids.
An intermittent dosing schedule on days 1-7 of a 28-day cycle was then evaluated after 2 cycles of daily dosing, or ≥3 cycles of daily dosing to reduce the risk of immune-related adverse events. For this analysis the intermittent schedule (IS) group is defined as patients who received Compound A35 alone or with rituximab daily for 2 cycles then switched to an intermittent schedule of 1 week per cycle, and the continuous schedule (CS) group is defined as patients who never switched to intermittent dosing or switched to intermittent dosing in cycle 4 or later cycles. Toxicity on CS is managed by a switch to IS.
The IS was developed to mitigate the risk of delayed toxicities observed with PI3K inhibitors and believed to be associated with on-target effect PI3K inhibition on immune cells.

## CN1CCC(c2ccccc2CC(C)(C)Nc2nc(N3CCOCC3)nc(-n3c(C(F)F)nc4ccccc43)n2)CC1 [Compound A35]
CLL/SLL, All (N = 17)
  AESI ALT/AST increased, All Grades, patients (%): 2 (11.8%)
  AESI ALT/AST increased, Related Grade 3, patients (%): 0%
  AESI Diarrhea/colitis, All Grades, patients (%): 9 (52.9%)
  AESI Diarrhea/colitis, Related Grade 3, patients (%): 4 (23.5%)
  AESI Mucositis, All Grades, patients (%): 1 (5.9%)
  AESI Mucositis, Related Grade 3, patients (%): 0%
  AESI Pneumonia/Pneumonitis, All Grades, patients (%): 3 (17.6%)
  AESI Pneumonia/Pneumonitis, Related Grade 3, patients (%): 3 (17.6%)
  AESI Rash, all types, All Grades, patients (%): 6 (35.3%)
  AESI Rash, all types, Related Grade 3, patients (%): 0%
CLL/SLL, CS Group (N = 9)
  AESI ALT/AST increased, All Grades, patients (%): 2 (22.2%)
  AESI ALT/AST increased, Related Grade 3, patients (%): 0%
  AESI Diarrhea/colitis, All Grades, patients (%): 6 (66.7%)
  AESI Diarrhea/colitis, Related Grade 3, patients (%): 3 (33.3%)
  AESI Mucositis, All Grades, patients (%): 1 (11.1%)
  AESI Mucositis, Related Grade 3, patients (%): 0%
  AESI Pneumonia/Pneumonitis, All Grades, patients (%): 3 (33.3%)
  AESI Pneumonia/Pneumonitis, Related Grade 3, patients (%): 3 (33.3%)
  AESI Rash, all types, All Grades, patients (%): 4 (44.0%)
  AESI Rash, all types, Related Grade 3, patients (%): 0%
CLL/SLL, IS Group (N = 8)
  AESI ALT/AST increased, All Grades, patients (%): 0%
  AESI ALT/AST increased, Related Grade 3, patients (%): 0%
  AESI Diarrhea/colitis, All Grades, patients (%): 3 (37.5%)
  AESI Diarrhea/colitis, Related Grade 3, patients (%): 1 (12.5%)
  AESI Mucositis, All Grades, patients (%): 0%
  AESI Mucositis, Related Grade 3, patients (%): 0%
  AESI Pneumonia/Pneumonitis, All Grades, patients (%): 0%
  AESI Pneumonia/Pneumonitis, Related Grade 3, patients (%): 0%
  AESI Rash, all types, All Grades, patients (%): 2 (25.0%)
  AESI Rash, all types, Related Grade 3, patients (%): 0%
FL, All (N = 40)
  AESI ALT/AST increased, All Grades, patients (%): 9 (22.5%)
  AESI ALT/AST increased, Related Grade 3, patients (%): 3 (7.5%)
  AESI Diarrhea/colitis, All Grades, patients (%): 17 (42.5%)
  AESI Diarrhea/colitis, Related Grade 3, patients (%): 6 (15.0%)
  AESI Mucositis, All Grades, patients (%): 6 (15.0%)
  AESI Mucositis, Related Grade 3, patients (%): 1 (2.5%)
  AESI Pneumonia/Pneumonitis, All Grades, patients (%): 2 (5.0%)
  AESI Pneumonia/Pneumonitis, Related Grade 3, patients (%): 2 (5.0%)
  AESI Rash, all types, All Grades, patients (%): 12 (30.0%)
  AESI Rash, all types, Related Grade 3, patients (%): 4 (10.0%)
FL, CS Group (N = 25)
  AESI ALT/AST increased, All Grades, patients (%): 6 (24.0%)
  AESI ALT/AST increased, Related Grade 3, patients (%): 3 (12.0%)
  AESI Diarrhea/colitis, All Grades, patients (%): 10 (40.0%)
  AESI Diarrhea/colitis, Related Grade 3, patients (%): 5 (20.0%)
  AESI Mucositis, All Grades, patients (%): 6 (24.0%)
  AESI Mucositis, Related Grade 3, patients (%): 1 (4.0%)
  AESI Pneumonia/Pneumonitis, All Grades, patients (%): 2 (8.0%)
  AESI Pneumonia/Pneumonitis, Related Grade 3, patients (%): 2 (8.0%)
  AESI Rash, all types, All Grades, patients (%): 11 (44.0%)
  AESI Rash, all types, Related Grade 3, patients (%): 4 (16.0%)
FL, IS Group (N = 15)
  AESI ALT/AST increased, All Grades, patients (%): 3 (20.0%)
  AESI ALT/AST increased, Related Grade 3, patients (%): 0%
  AESI Diarrhea/colitis, Related Grade 3, patients (%): 1 (6.7%)
  AESI Mucositis, All Grades, patients (%): 0%
  AESI Mucositis, Related Grade 3, patients (%): 0%
  AESI Pneumonia/Pneumonitis, All Grades, patients (%): 0%
  AESI Pneumonia/Pneumonitis, Related Grade 3, patients (%): 0%
  AESI Rash, all types, All Grades, patients (%): 1 (6.7%)
  AESI Rash, all types, Related Grade 3, patients (%): 0%
FL, IS Group (N = 15), excluded 1 subject with diarrhea after POD and 1 with diarrhea lasting one day with no dose change
  AESI Diarrhea/colitis, All Grades, patients (%): 7 (46.7%)*
IS versus CS
  immune-mediated toxicities with IS administration: reduces the incidence of or delayed onset of immune-mediated toxicities
Phase 1b study, patients with B-cell malignancies, CS dosing
  period of CS dosing before onset of severe immune-related toxicities: greater than 2 cycles
